“And” between values parts separate entries of the source, which are not always exact repeats. Equal entries are not always repeated.
Key:
NTPDase3 = biological target: T1, NTPDase3 (Homo sapiens, UniProt O75355); test: Stability to hydrolysis by human NTPDase3; format: in vitro ADME; settings: analogue 100 μM; activity with 100 μM ATP = 100%
T1 sequence (O75355 1-529): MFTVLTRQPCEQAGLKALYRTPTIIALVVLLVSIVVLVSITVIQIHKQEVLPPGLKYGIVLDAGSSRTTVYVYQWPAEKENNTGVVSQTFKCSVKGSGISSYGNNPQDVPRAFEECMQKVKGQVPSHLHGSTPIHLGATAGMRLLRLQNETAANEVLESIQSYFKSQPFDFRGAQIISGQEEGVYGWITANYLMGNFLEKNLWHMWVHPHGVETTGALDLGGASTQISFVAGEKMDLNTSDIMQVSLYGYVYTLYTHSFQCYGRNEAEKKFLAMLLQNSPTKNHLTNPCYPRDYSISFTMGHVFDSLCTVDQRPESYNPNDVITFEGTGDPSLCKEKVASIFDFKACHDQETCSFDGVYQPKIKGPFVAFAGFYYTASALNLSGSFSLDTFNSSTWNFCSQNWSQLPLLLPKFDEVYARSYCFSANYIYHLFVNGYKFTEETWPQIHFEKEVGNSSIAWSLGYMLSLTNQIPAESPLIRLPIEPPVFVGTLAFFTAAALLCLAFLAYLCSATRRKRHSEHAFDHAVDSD
Description: (§1) Uridine 5′-Pα,α-phosphorodithioate analogues, 9-12, were tested for their stability to degradation by NPP1 and NTPDases. These enzymes are involved in the metabolism of extracellular nucleotides. Analogues 9-12 were not hydrolyzed by hNPP1 (Table 2). […] Analogue 10 was hydrolyzed by hNTPDase1, -2 and -3 at 30-39% the rate of ATP and was slightly hydrolyzed by human NTPDase8 at 16% the rate of ATP.
(§2) Analogues 9-12 were incubated in the presence of the indicated ectonucleotidase at a concentration of 100 μM. The activity with 100 μM ATP was set as 100%, which was 329±108, 302±34, 263±51, 195±76 nmol of Pi·min−1·mg of protein−1 for NTPDase1, -2, -3 and -8, respectively, and 34±7 nmol for NPP1. Data presented are the mean±SEM of results from two experiments.

NTPDase8 = biological target: T2, NTPDase8 (Homo sapiens, UniProt Q5MY95); test: Stability to hydrolysis by human NTPDase8; format: in vitro ADME; settings: analogue 100 μM; activity with 100 μM ATP = 100%
T2 sequence (Q5MY95 1-495): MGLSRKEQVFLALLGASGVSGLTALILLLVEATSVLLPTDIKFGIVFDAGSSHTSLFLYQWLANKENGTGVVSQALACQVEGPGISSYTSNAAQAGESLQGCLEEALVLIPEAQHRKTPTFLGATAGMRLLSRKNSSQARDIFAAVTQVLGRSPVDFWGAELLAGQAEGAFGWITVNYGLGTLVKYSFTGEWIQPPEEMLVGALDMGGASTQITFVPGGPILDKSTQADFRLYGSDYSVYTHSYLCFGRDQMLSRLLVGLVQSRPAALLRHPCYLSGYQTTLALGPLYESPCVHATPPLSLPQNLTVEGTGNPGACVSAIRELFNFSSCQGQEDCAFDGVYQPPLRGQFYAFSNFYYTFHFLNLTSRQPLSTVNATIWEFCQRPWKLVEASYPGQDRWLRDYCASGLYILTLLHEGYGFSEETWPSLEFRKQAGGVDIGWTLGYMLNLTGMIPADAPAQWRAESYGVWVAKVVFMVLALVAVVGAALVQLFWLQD
Description: as §1, §2

human NPP3 = biological target: T3, human NPP3 (Homo sapiens, UniProt O14638); test: Inhibition of human NPP3, 100 μM p-Nph-5′-TMP as substrate (Tables 5, 7); format: biochemical; settings: 100 μM p-Nph-5′-TMP as a substrate; n = 3
T3 sequence (O14638 1-875): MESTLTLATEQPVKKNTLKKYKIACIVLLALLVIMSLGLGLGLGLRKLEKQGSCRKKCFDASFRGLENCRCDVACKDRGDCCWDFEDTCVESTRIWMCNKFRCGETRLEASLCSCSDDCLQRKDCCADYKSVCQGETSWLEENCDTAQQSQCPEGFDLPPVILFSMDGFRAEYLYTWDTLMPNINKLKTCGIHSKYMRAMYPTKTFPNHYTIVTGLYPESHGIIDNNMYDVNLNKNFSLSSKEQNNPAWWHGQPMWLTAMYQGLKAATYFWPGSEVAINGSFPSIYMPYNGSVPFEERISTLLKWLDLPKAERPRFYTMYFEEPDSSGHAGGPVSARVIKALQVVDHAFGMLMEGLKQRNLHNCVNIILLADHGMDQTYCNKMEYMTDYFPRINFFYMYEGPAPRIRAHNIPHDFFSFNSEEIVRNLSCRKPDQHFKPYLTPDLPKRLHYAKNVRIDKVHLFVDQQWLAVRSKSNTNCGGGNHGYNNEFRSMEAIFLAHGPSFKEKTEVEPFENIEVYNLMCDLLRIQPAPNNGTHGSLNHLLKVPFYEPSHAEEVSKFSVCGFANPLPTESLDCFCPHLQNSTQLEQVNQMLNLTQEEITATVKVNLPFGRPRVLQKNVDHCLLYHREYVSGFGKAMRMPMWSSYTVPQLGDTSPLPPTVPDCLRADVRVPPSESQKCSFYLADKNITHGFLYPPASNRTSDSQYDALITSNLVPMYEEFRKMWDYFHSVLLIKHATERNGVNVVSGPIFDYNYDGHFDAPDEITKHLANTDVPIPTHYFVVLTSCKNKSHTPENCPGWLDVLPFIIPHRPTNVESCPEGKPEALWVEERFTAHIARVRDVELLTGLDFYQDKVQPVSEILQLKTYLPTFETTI

P2Y6R = P2Y6R (Homo sapiens, UniProt Q15077); test: Calcium mobilization in 1321N1 astrocytoma cells expressing human P2Y6R; format: cell-based; set-up: expressed in transfected cells; host or cells: 1321N1 astrocytoma cells (stably transfected)
Sequence of P2Y6R (Q15077 whole entry): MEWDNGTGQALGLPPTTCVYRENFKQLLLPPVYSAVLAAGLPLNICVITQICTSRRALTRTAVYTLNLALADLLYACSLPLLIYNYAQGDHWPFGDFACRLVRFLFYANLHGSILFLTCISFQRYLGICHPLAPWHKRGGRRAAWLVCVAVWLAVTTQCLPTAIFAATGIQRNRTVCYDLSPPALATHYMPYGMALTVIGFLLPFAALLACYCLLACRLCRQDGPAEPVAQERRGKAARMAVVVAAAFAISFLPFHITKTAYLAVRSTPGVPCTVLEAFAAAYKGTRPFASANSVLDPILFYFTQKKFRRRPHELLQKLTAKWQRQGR
Description: Given the structural resemblance of 106-109 to the natural ligands of P2Y receptors, adenine and uracil nucleotides as natural substrates, were assessed for agonist potency on the human P2Y1, P2Y2, P2Y4, and P2Y6 receptor. To evaluate NPP1 selectivity of analogs 106-109, they were tested for their ability to activate of the uridine-nucleotide sensitive human recombinant P2Y1,2,4,6-receptors. The agonist potencies of this series of nucleotide analogues on the Gq protein-coupled human P2Y1R, P2Y2R, P2Y4R, and P2Y6R was determined by assessing its ability to induce calcium mobilization in stably transfected 1321N1 astrocytoma cells (Table 8). The nucleotide analogues were found in calcium mobilization assays to activate the P2Y2R with mid-micromolar potency.

SMILES | Relative activity (%) ± SEM of ATP hydrolysis, NTPDase3 (NTPDase3) [%] | Relative activity (%) ± SEM of ATP hydrolysis, NTPDase8 (NTPDase8) | % inhibition ± SEM, human NPP3 (human NPP3) | % activation at 10 μM, P2Y6 (P2Y6R) [%]
O=c1ccn([C@@H]2O[C@H](COP(=S)(S)OP(=O)(O)OP(=O)(O)O)[C@@H](O)[C@H]2O)c(=O)[nH]1 (stereo partly shown) [Analogue 10] | 39.7 ± 1.9 | 16% and 16.5 ± 2.8% | – | –
Nc1ncnc2c1ncn2COCCOP(=S)(S)OP(=O)(O)O (stereo not shown) [compound 106] | – | – | n.i.d | −2 ± 1

Reference: patent US20220220135A1 (BAR-ILAN UNIVERSITY, priority 2019, published 2022)
